Values of other authors, collected in US7612172B2, “Nucleic acids and corresponding proteins entitled 282P1G3 useful in treatment and detection of cancer” (Agensys, Inc., priority 2002, dated 2009).

Tests used:
[1] = tested on: LAGE-I tumor specific gene; conditions: lymphoblastoid cells
T helper lymphocytes = conditions: regardless of HLA type

| Compound | expression of the LAGE-I tumor specific gene [1] | binding to HLA-DR alleles (HLA-DR alleles) | stimulation of T helper lymphocyte response (T helper lymphocytes) |
| --- | --- | --- | --- |
| Nc1ncn([C@H]2C[C@H](O)[C@@H](CO)O2)c(=O)n1 [deoxy-azacytidine] | induced | – | – |
| aKXVAAWTLKAa | – | bind to most HLA-DR alleles | stimulate the response of T helper lymphocytes from most individuals |
